Laboratory results as given in patent US8513236B2 (Laurus Labs Private Limited, priority 2010, dated 2013).
“Also recorded” adds a separate entry of the source. One block for each molecule: values may come before it.

Columns and labels:
[1] = Relative humidity stability at ambient temperature, analyzed by XRPD; type: physicochemical
Text: Upon completion of the duration allowed, the samples were immediately analyzed by XRPD.

[2] = Slurrying in water, resulting solid form; type: physicochemical; conditions: for result of slurrying in water: three days
hyperglycemic rats = conditions: cited from earlier work
cancer cell lines = conditions: in vitro; cited from earlier work
[3] = cited from earlier work
[4] = cited from earlier work; remark: listed apart in the source
[5] = Intrinsic dissolution in 900 mL water at ambient conditions (attempted); type: physicochemical; conditions: after 30 minutes
Method: Intrinsic dissolution in 900 mL water at ambient conditions was also attempted. […] Therefore, a concentration vs. time and intrinsic dissolution rate value were unobtainable at these conditions.

Molecule: Cn1c(=O)c2c(ncn2C)n(C)c1=O [caffeine]
Results ([1]; 75% RH, 1 week): caffeine anhydrous | Results ([1]; 75% RH, 4 weeks): does not display signs of conversion; also recorded: caffeine anhydrous | Results ([1]; 75% RH, 1 day): caffeine anhydrous | Results ([1]; 75% RH, 3 days): caffeine anhydrous | Results ([1]; 94% RH, 1 week (7 days)): caffeine hydrate | Results ([1]; 94% RH, 4 weeks): caffeine hydrate | Results ([1]; 94% RH, 1 day): caffeine anhydrous | Results ([1]; 94% RH, 3 days): caffeine anhydrous/caffeine hydrate | conversion to hydrate ([1]; 94% RH, between one and three days): partial conversion | Results ([1]; 98% RH, 1 week): caffeine hydrate | Results ([1]; 98% RH, 4 weeks): caffeine hydrate | Results ([1]; 98% RH, 1 day): caffeine hydrate | Results ([1]; 98% RH, 3 days): caffeine hydrate | conversion to hydrate ([1]; 98% RH, in less than one day): converts to caffeine hydrate

Molecule: COc1cc(/C=C/c2ccc(O)cc2)cc(OC)c1.Cn1c(=O)c2c(ncn2C)n(C)c1=O [cocrystal 1 (Form I), pterostilbene:caffeine]
Results ([1]; 75% RH, 1 week): cocrystal 1 (Form I), no caffeine hydrate | Results ([1]; 75% RH, 1 week, additional stress at 98% RH): cocrystal 1 (Form I), no caffeine hydrate | Results ([1]; 75% RH, 4 weeks): cocrystal 1 (Form I), no caffeine hydrate | Results ([1]; 75% RH, 1 day): cocrystal 1 (Form I), no caffeine hydrate | Results ([1]; 75% RH, 1 day, additional stress at 98% RH): cocrystal 1 (Form I), no caffeine hydrate | Results ([1]; 75% RH, 3 days): cocrystal1 (Form I), no caffeine hydrate | Results ([1]; 94% RH, 1 week (7 days)): cocrystal 1 (Form I), no caffeine hydrate | Results ([1]; 94% RH, 4 weeks): cocrystal 1 (Form I), no caffeine hydrate | Results ([1]; 94% RH, 1 day): cocrystal 1 (Form I), no caffeine hydrate | Results ([1]; 94% RH, 3 days): cocrystal 1 (Form I), no caffeine hydrate | Results ([1]; 94% RH, 7 days, additional stress at 98% RH, 4 weeks): cocrystal 1 (Form I), no caffeine hydrate | Results ([2]; slurry, 2 days): cocrystal 1 (Form I), no caffeine hydrate | result of slurrying in water [2]: precipitation of pterostilbene

Molecule: COc1cc(/C=C/c2ccc(O)cc2)cc(OC)c1.Cn1c(=O)c2c(ncn2C)n(C)c1=O [cocrystal 1, pterostilbene:caffeine]
Results ([1]; 75% RH, 4 weeks): no dissociation | Results ([1]; 94% RH, 4 weeks): no dissociation | Results ([1]; 98% RH, 4 weeks): no dissociation

Molecule: CN(C)C(=N)N=C(N)N [metformin]
decreased plasma glucose levels (hyperglycemic rats): 48%

Molecule: COc1cc(/C=C/c2ccc(O)cc2)cc(OC)c1 [pterostilbene, trans-3,5-dimethoxy-4′-hydroxystilbene]
Results ([1]; 75% RH, 4 weeks): pterostilbene (Form I) | Results ([1]; 94% RH, 4 weeks): pterostilbene (Form I) | Results ([1]; 98% RH, 4 weeks): pterostilbene (Form I) | cytotoxic activity against cancer cell lines (cancer cell lines): cytotoxic activity | solubility in water [3]: poor solubility in water | bioavailability [4]: poor bioavailability

result of slurrying in water [2]: stable
Molecule: pterostilbene:carbamazepine [cocrystal 2]

Results ([1]; 75% RH, 4 weeks): no dissociation | Results ([1]; 94% RH, 4 weeks): no dissociation | Results ([1]; 98% RH, 4 weeks): no dissociation | XRPD results when slurrying in water at ambient ([2]; after 5 minutes): crystalline pterostilbene | XRPD results, intrinsic dissolution [5]: crystalline pterostilbene
Molecule: pterostilbene:glutaric acid [cocrystal 3]
